Measured values reported in US10844077B2, “Thiazolyl-containing compounds for treating proliferative diseases” (Dana-Farber Cancer Institute, Inc., priority 2014, dated 2020).
“And” between values parts separate entries of the source, which are not always exact repeats. Equal values may be shown once.

Key:
MAPKAPK3 = MAPKAPK3 (Homo sapiens (Human), UniProt Q16644)
Procedure: (§1) The cells were harvested and lysed. The lysates were directly labeled with an ATP-biotin probe. Bound kinases were identified and quantitated by ACTIVX as described in Patricelli et al., Biochemistry, 2007, 46(2): 350-358. The compounds were tested in duplicates against duplicate or quadruplicate control samples.

PRPK = PRPK (Homo sapiens (Human), UniProt Q96S44)
Procedure: as §1

PCTAIRE2 = PCTAIRE2 (Homo sapiens (Human), UniProt Q00537)
Procedure: as §1

PCTAIRE1 = PCTAIRE1 (Homo sapiens (Human), UniProt Q00536)
Procedure: as §1

PRP4 = PRP4 (Homo sapiens (Human), UniProt Q13523)
Procedure: as §1

NEK8 = NEK8 (Homo sapiens (Human), UniProt Q86SG6); assay: KINATIV assay; type: cell-based; details: 1 μM, 90 minutes, BCWM.1 cells
In short: (§2)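 Kinase occupancy was profiled in native cell lysates, which were labeled with an ATP-biotin probe. Bound kinases were identified and quantitated using ACTIVX.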

NDR2 = NDR2 (Homo sapiens (Human), UniProt Q9Y2H1); assay: KINATIV assay; type: cell-based; details: 1 μM, 90 minutes, BCWM.1 cells
In short: as §2

ZC2/TNIK = ZC2/TNIK (Homo sapiens (Human), UniProt Q9UKE5); assay: KINATIV assay; type: cell-based; details: 1 μM, 90 minutes, BCWM.1 cells
In short: as §2

CDK6 = CDK6 (Homo sapiens (Human), UniProt Q00534); assay: KINATIV assay; type: cell-based; details: 1 μM, 90 minutes, BCWM.1 cells
In short: as §2

SRPK1 = SRPK1 (Homo sapiens (Human), UniProt Q96SB4); assay: KINATIV assay; type: cell-based; details: 1 μM, 90 minutes, BCWM.1 cells
In short: as §2

MAP3K3 = MAP3K3 (Homo sapiens (Human), UniProt Q99759); assay: KINATIV assay; type: cell-based; details: 1 μM, 90 minutes, BCWM.1 cells
In short: as §2

RSK4 domain1 = RSK4 domain1 (Homo sapiens (Human), UniProt Q9UK32); assay: KINATIV assay; type: cell-based; details: 1 μM, 90 minutes, BCWM.1 cells
In short: as §2

Wnk1, Wnk2, Wnk3 = assay: KINATIV assay; type: cell-based; details: 1 μM, 90 minutes, BCWM.1 cells
In short: as §2

CSK = CSK (Homo sapiens (Human), UniProt P41240); assay: KINATIV assay; type: cell-based; details: 1 μM, 90 minutes, BCWM.1 cells
In short: as §2

MAP2K7 = MAP2K7 (Homo sapiens (Human), UniProt O14733); assay: KINATIV assay; type: cell-based; details: 1 μM, 90 minutes, BCWM.1 cells
In short: as §2

ABL, ARG = assay: KINATIV assay; type: cell-based; details: 1 μM, 90 minutes, BCWM.1 cells
In short: as §2

GSK3A = GSK3A (Homo sapiens (Human), UniProt P49840); assay: KINATIV assay; type: cell-based; details: 1 μM, 90 minutes, BCWM.1 cells
In short: as §2

MSK2 domain1 = MSK2 domain1 (Homo sapiens (Human), UniProt O75676); assay: KINATIV assay; type: cell-based; details: 1 μM, 90 minutes, BCWM.1 cells
In short: as §2

MST4 = MST4 (Homo sapiens (Human), UniProt Q9P289); assay: KINATIV assay; type: cell-based; details: 1 μM, 90 minutes, BCWM.1 cells
In short: as §2

p70S6K = p70S6K (Homo sapiens (Human), UniProt P23443); assay: KINATIV assay; type: cell-based; details: 1 μM, 90 minutes, BCWM.1 cells
In short: as §2

PKD2 = PKD2 (Homo sapiens (Human), UniProt Q9BZL6); assay: KINATIV assay; type: cell-based; details: 1 μM, 90 minutes, BCWM.1 cells
In short: as §2

PIK3C3 = PIK3C3 (Homo sapiens (Human), UniProt Q8NEB9); assay: KINATIV assay; type: cell-based; details: 1 μM, 90 minutes, BCWM.1 cells
In short: as §2

TEC = TEC (Homo sapiens (Human), UniProt P42680); assay: KINATIV assay; type: cell-based; details: 1 μM, 90 minutes, BCWM.1 cells
In short: as §2

MARK2, MARK3 = assay: KINATIV assay; type: cell-based; details: 1 μM, 90 minutes, BCWM.1 cells
In short: as §2

NLK = NLK (Homo sapiens (Human), UniProt Q9UBE8); assay: KINATIV assay; type: cell-based; details: 1 μM, 90 minutes, BCWM.1 cells
In short: as §2

VRK2 = VRK2 (Homo sapiens (Human), UniProt Q86Y07); assay: KINATIV assay; type: cell-based; details: 1 μM, 90 minutes, BCWM.1 cells
In short: as §2

MAP2K1 = MAP2K1 (Homo sapiens (Human), UniProt Q02750); assay: KINATIV assay; type: cell-based; details: 1 μM, 90 minutes, BCWM.1 cells
In short: as §2

CK2a2 = CK2a2 (Homo sapiens (Human), UniProt P19784); assay: KINATIV assay; type: cell-based; details: 1 μM, 90 minutes, BCWM.1 cells
In short: as §2

[1] = system: ZC1/HGK, ZC2/TNIK, ZC3/MINK; assay: KINATIV assay; type: cell-based; details: 1 μM, 90 minutes, BCWM.1 cells
In short: as §2

TLK1 = TLK1 (Homo sapiens (Human), UniProt Q9UKI8); assay: KINATIV assay; type: cell-based; details: 1 μM, 90 minutes, BCWM.1 cells
In short: as §2

KSR1, KSR2 = assay: KINATIV assay; type: cell-based; details: 1 μM, 90 minutes, BCWM.1 cells
In short: as §2

FYN, SRC, YES = assay: KINATIV assay; type: cell-based; details: 1 μM, 90 minutes, BCWM.1 cells
In short: as §2

BTK = BTK (Homo sapiens (Human), UniProt Q06187); assay: KINATIV assay; type: cell-based; details: 1 μM, 90 minutes, BCWM.1 cells
In short: as §2

ACK = ACK (Homo sapiens (Human), UniProt Q07912); assay: KINATIV assay; type: cell-based; details: 1 μM, 90 minutes, BCWM.1 cells
In short: as §2

TAK1 = TAK1 (Homo sapiens (Human), UniProt O43318); assay: KINATIV assay; type: cell-based; details: 1 μM, 90 minutes, BCWM.1 cells
In short: as §2

ATR = ATR (Homo sapiens (Human), UniProt Q13535); assay: KINATIV assay; type: cell-based; details: 1 μM, 90 minutes, BCWM.1 cells
In short: as §2

EphB1 = EphB1 (Homo sapiens (Human), UniProt P54762); assay: KINATIV assay; type: cell-based; details: 1 μM, 90 minutes, BCWM.1 cells
In short: as §2

PCTAIRE1, PCTAIRE3 = assay: KINATIV assay; type: cell-based; details: 1 μM, 90 minutes, BCWM.1 cells
Description: (§3) The cells were harvested and lysed.

PCTAIRE2, PCTAIRE3 = assay: KINATIV assay; type: cell-based; details: 1 μM, 90 minutes, BCWM.1 cells
Description: as §3

Sequence of CSK (P41240 whole entry): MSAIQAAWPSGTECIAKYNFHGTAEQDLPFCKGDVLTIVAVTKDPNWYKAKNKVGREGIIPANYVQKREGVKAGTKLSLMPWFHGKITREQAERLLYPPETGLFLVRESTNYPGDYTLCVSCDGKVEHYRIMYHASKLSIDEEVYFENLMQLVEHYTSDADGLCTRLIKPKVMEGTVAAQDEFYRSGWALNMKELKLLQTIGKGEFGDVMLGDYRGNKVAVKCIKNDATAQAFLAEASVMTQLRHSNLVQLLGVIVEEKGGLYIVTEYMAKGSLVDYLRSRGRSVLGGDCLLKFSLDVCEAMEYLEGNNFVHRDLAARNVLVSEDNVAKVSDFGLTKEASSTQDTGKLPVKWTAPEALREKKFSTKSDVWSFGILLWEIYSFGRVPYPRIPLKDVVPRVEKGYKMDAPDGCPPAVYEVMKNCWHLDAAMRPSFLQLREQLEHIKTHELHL
Sequence of TLK1 (Q9UKI8 whole entry): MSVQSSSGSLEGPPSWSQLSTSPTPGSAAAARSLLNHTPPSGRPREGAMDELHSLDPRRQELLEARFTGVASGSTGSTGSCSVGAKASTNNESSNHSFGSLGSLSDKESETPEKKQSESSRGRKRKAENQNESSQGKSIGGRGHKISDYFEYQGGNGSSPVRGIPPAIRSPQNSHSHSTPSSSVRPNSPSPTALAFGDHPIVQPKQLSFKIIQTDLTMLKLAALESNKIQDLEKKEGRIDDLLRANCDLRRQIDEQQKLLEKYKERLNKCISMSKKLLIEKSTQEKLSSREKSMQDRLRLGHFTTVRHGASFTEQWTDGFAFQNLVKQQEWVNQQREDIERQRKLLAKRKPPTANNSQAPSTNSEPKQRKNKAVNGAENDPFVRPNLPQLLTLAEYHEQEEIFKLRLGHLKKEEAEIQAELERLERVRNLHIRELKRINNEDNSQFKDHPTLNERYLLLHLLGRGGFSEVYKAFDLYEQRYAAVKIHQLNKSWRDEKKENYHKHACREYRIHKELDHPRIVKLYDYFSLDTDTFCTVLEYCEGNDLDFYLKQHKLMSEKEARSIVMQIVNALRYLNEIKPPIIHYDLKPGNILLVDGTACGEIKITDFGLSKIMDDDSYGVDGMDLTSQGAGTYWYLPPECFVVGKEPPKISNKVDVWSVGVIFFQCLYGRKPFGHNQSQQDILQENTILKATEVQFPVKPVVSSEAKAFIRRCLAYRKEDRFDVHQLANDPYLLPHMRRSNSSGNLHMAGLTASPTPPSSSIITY
Sequence of BTK (Q06187 whole entry, looked up): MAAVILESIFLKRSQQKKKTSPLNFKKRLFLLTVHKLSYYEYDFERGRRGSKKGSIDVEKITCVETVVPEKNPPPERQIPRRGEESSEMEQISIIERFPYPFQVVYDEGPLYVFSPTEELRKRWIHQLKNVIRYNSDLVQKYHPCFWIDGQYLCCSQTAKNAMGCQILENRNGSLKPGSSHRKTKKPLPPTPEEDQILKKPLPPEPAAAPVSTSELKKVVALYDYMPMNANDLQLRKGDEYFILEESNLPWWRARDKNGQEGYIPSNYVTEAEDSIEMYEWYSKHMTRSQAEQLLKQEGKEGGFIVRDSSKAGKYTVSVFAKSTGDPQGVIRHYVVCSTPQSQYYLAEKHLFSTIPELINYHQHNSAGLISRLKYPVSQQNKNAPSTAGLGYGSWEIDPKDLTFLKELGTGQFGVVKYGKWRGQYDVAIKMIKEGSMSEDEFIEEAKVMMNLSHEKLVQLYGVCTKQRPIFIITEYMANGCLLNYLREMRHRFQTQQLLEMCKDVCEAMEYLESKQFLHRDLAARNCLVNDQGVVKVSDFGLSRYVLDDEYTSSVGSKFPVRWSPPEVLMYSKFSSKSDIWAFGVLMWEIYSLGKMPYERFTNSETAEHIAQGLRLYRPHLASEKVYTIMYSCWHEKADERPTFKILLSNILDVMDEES
Sequence of ACK (Q07912 whole entry): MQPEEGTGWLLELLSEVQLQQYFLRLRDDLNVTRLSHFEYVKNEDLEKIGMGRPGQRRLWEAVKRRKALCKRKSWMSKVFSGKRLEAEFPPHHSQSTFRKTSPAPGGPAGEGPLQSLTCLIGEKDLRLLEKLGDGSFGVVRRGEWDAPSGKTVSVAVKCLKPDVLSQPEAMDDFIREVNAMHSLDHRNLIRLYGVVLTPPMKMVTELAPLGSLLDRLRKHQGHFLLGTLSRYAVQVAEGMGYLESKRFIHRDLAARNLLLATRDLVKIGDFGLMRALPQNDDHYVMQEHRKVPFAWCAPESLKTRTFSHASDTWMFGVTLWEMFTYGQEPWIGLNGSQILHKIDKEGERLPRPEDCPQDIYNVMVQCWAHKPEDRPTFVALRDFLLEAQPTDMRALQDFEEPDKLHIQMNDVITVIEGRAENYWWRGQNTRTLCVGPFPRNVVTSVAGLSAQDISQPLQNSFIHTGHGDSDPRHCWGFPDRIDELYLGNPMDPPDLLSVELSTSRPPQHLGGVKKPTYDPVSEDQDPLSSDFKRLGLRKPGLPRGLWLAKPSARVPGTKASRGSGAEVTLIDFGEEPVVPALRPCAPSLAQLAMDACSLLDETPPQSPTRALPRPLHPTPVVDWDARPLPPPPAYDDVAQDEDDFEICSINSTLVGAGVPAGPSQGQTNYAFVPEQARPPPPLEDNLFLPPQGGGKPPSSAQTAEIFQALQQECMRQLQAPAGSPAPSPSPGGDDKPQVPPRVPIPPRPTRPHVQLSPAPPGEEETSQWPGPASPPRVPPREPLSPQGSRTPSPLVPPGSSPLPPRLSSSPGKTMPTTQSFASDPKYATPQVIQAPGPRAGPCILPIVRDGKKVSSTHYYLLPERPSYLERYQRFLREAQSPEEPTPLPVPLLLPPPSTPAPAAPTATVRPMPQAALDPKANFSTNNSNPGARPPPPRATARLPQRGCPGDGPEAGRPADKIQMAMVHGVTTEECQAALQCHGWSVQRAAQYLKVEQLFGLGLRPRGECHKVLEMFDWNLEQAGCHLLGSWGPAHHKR
Sequence of TEC (P42680 whole entry): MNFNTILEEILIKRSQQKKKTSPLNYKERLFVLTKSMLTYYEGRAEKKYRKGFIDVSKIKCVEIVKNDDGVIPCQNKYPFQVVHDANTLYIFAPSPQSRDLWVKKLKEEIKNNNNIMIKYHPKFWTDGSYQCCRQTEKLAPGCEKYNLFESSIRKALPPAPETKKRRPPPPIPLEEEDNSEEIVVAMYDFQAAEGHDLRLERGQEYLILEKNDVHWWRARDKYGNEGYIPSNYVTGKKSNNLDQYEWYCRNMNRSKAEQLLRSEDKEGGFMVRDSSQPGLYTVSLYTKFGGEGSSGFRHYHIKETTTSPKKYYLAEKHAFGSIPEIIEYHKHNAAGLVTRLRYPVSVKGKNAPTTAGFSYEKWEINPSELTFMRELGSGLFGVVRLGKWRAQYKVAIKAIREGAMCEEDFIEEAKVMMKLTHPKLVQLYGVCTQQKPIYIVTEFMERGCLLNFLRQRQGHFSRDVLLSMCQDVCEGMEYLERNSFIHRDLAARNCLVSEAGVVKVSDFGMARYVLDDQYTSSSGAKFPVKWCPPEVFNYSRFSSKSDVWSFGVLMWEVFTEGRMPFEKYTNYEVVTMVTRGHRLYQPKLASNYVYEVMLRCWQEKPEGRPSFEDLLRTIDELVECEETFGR
Sequence of PIK3C3 (Q8NEB9 whole entry): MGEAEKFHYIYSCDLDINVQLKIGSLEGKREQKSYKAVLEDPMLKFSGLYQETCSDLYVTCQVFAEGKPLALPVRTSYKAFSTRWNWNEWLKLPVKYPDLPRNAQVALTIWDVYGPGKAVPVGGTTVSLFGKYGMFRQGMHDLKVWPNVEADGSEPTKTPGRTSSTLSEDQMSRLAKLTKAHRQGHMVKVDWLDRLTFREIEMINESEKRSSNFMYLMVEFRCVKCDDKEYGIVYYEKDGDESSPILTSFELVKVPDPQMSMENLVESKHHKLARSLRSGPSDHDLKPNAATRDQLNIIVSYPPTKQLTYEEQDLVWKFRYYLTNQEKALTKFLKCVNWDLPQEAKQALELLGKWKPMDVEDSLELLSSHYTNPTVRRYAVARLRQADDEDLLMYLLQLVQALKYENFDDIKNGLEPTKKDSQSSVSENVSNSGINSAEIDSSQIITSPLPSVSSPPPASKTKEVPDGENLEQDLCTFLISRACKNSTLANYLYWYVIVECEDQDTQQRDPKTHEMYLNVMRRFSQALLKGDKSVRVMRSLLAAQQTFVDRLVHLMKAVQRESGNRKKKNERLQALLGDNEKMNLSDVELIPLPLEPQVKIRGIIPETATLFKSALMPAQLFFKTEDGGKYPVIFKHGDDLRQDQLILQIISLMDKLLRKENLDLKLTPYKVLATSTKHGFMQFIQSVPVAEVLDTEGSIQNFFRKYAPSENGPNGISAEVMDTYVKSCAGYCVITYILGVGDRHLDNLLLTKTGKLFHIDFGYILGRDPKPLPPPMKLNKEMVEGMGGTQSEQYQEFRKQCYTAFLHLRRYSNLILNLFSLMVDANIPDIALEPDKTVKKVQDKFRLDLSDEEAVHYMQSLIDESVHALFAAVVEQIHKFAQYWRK
Sequence of p70S6K (P23443 whole entry): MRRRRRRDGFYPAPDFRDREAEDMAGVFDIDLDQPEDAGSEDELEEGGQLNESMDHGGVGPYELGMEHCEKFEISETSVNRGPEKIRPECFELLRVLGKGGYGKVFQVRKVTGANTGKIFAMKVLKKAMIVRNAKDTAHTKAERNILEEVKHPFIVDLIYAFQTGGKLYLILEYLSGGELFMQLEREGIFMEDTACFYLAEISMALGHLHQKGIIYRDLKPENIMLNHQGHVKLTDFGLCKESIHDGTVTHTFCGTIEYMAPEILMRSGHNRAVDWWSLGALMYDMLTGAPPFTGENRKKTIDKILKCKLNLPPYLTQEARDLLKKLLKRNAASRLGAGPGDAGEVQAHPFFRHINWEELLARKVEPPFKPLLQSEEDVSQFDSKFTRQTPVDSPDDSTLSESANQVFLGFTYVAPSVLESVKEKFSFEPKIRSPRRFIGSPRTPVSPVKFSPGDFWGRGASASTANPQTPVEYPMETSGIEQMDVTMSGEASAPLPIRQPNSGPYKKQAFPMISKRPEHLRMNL

SMILES	% change of MS signal compared to control sample (MAPKAPK3) [%]	% change of MS signal compared to control sample (PRPK) [%]	% change of MS signal compared to control sample (PCTAIRE2) [%]	% change of MS signal compared to control sample (PCTAIRE1) [%]	% change of MS signal compared to control sample (PRP4) [%]	% change of MS signal compared to control sample (NEK8) [%]	% change of MS signal compared to control sample (ZC2/TNIK) [%]	% change of MS signal compared to control sample (CDK6) [%]	% change of MS signal compared to control sample (SRPK1) [%]	% change of MS signal compared to control sample (MAP3K3) [%]	% change of MS signal compared to control sample (RSK4 domain1) [%]	% change of MS signal compared to control sample (Wnk1, Wnk2, Wnk3) [%]	% change of MS signal compared to control sample (CSK)	% change of MS signal compared to control sample (MAP2K7) [%]	% change of MS signal compared to control sample (ABL, ARG)	% change of MS signal compared to control sample (GSK3A) [%]	% change of MS signal compared to control sample (MSK2 domain1) [%]	% change of MS signal compared to control sample (MST4) [%]	% change of MS signal compared to control sample (p70S6K) [%]	% change of MS signal compared to control sample (PKD2) [%]	further results
C=CC(=O)N1CC[C@@H](Nc2nccc(Nc3ncc(C(=O)Nc4c(C)cccc4C)s3)n2)C1 [Example I-4]	7.0	−13.6	13.4	19.0	6.9	14.6	48.8	7.8	−2.1	−0.7	3.5	17.5	35.7%	−10.1	>90% and 91.7%	−10.5	−9.6	−13.2	−102.3	12.9	% change of MS signal compared to control sample (NDR2): −42.0%; % change of MS signal compared to control sample (PIK3C3): −14.1% and −5.5%; % change of MS signal compared to control sample (TEC): 68.7% and 73.7%; % change of MS signal compared to control sample (MARK2, MARK3): −31.5%; % change of MS signal compared to control sample (NLK): 6.7%; % change of MS signal compared to control sample (VRK2): −30.6%; % change of MS signal compared to control sample (MAP2K1): −31.6%; % change of MS signal compared to control sample (CK2a2): −3.6%; % change of MS signal compared to control sample [1]: 3.3%; % change of MS signal compared to control sample (TLK1): 2.2% and 8.2%; % change of MS signal compared to control sample (KSR1, KSR2): −8.9%; % change of MS signal compared to control sample (FYN, SRC, YES): 97.4%; % change of MS signal compared to control sample (BTK): 97.0% and >90%; % change of MS signal compared to control sample (ACK): 27.0% and 22.8%; % change of MS signal compared to control sample (TAK1): 27.8%; % change of MS signal compared to control sample (ATR): −66.1%; % change of MS signal compared to control sample (EphB1): >97%; % change of MS signal compared to control sample (PCTAIRE1, PCTAIRE3): 12.7%; % change of MS signal compared to control sample (PCTAIRE2, PCTAIRE3): 27.9%
C=CC(=O)N1CCC(Cn2ccc(Nc3ncc(C(=O)Nc4c(C)cccc4Cl)s3)n2)C1 (centres unmarked) [II-1]	6.2	−5.2	7.7	38.4	6.9	6.5	−10.0	6.0	−4.7	13.7	−22.4	2.4	26.2% and 32.5%	−0.6	76.1% and 39.5%	−11.8	−33.9	21.1	−65.4	12.7	% change of MS signal compared to control sample (PIK3C3): −4.7% and −11.6%; % change of MS signal compared to control sample (TEC): 91.5% and 80.8%; % change of MS signal compared to control sample (MARK2, MARK3): −10.1%; % change of MS signal compared to control sample (NLK): 3.7%; % change of MS signal compared to control sample (VRK2): 5.2%; % change of MS signal compared to control sample (MAP2K1): −23.4%; % change of MS signal compared to control sample (CK2a2): 13.8%; % change of MS signal compared to control sample [1]: 4.2%; % change of MS signal compared to control sample (TLK1): 7.1% and 5.7%; % change of MS signal compared to control sample (KSR1, KSR2): −8.7%; % change of MS signal compared to control sample (FYN, SRC, YES): 88.1%; % change of MS signal compared to control sample (BTK): 97.1% and >90%; % change of MS signal compared to control sample (ACK): 51.7% and 50.8%; % change of MS signal compared to control sample (TAK1): 25.6%; % change of MS signal compared to control sample (ATR): −55.3%; % change of MS signal compared to control sample (EphB1): 91.0%; % change of MS signal compared to control sample (PCTAIRE1, PCTAIRE3): 11.4%; % change of MS signal compared to control sample (PCTAIRE2, PCTAIRE3): 31.8%
